From patent US8192753B2, “pH-sensitive cationic lipids, and liposomes and nanocapsules containing the same” (Marina Biotech, Inc., priority 2002, dated 2012)

Test: Determination of pKa values by titration in 0.5% TRITON-X 100
Conditions: lipid in 0.5% TRITON-X 100 in water, titrated with 20 mM NaOH from pH 3.0

## 4-(2-aminoethyl)morpholine-di-palmitoylglycerol succinate [#60]
  pKa: 7.2
